Source: patent US12599597B2, “Substituted N-benzhydrylacetamide inhibitors of jumanji domain histone demethylases for the treatment of cancer” (University of Kentucky Research Foundation, priority 2020, dated 2026)

Tests used:
Test in all cases: Histone demethylase assay, purified enzyme panel
Type in all cases: biochemical
Settings in all cases: Reference inhibitor
JMJD2A (KDM4A) = target: T1, JMJD2A (KDM4A) (Homo sapiens, UniProt O75164)
T1 sequence (O75164 1-1064): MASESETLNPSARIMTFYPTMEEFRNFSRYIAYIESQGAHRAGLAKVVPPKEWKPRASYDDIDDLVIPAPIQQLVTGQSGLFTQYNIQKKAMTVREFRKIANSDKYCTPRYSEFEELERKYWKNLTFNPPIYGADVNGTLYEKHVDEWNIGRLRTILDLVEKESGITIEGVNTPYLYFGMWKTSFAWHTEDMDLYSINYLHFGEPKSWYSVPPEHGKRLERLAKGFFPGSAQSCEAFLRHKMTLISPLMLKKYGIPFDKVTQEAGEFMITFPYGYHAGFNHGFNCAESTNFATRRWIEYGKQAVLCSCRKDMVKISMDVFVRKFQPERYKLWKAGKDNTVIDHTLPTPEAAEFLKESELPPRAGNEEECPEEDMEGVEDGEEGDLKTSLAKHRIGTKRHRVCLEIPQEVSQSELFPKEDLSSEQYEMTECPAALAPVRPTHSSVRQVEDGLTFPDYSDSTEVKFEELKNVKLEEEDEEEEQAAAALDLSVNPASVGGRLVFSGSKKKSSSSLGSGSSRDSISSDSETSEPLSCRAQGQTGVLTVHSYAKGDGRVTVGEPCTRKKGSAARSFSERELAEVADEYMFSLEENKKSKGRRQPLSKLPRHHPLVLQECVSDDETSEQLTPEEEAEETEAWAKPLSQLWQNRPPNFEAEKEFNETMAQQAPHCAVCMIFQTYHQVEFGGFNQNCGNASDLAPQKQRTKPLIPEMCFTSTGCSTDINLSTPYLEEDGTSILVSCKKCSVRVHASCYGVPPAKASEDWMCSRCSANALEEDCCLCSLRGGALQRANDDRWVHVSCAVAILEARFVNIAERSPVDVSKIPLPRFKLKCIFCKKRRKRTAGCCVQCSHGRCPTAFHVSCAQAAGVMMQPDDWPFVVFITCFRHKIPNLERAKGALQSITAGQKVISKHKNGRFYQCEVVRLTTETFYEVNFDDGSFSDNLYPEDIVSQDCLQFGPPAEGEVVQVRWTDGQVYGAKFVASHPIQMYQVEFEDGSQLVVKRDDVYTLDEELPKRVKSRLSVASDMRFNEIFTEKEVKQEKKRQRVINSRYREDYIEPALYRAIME
Description: (§1) Histone Demethylase Assay
(§2) To further examine the effects of 58B1 on histone demethylase, we screened a panel of purified histone demethylases was screened.

JMJD2C (KDM4C) = target: T2, JMJD2C (KDM4C) (Homo sapiens, UniProt Q9H3R0)
T2 sequence (Q9H3R0 1-1056): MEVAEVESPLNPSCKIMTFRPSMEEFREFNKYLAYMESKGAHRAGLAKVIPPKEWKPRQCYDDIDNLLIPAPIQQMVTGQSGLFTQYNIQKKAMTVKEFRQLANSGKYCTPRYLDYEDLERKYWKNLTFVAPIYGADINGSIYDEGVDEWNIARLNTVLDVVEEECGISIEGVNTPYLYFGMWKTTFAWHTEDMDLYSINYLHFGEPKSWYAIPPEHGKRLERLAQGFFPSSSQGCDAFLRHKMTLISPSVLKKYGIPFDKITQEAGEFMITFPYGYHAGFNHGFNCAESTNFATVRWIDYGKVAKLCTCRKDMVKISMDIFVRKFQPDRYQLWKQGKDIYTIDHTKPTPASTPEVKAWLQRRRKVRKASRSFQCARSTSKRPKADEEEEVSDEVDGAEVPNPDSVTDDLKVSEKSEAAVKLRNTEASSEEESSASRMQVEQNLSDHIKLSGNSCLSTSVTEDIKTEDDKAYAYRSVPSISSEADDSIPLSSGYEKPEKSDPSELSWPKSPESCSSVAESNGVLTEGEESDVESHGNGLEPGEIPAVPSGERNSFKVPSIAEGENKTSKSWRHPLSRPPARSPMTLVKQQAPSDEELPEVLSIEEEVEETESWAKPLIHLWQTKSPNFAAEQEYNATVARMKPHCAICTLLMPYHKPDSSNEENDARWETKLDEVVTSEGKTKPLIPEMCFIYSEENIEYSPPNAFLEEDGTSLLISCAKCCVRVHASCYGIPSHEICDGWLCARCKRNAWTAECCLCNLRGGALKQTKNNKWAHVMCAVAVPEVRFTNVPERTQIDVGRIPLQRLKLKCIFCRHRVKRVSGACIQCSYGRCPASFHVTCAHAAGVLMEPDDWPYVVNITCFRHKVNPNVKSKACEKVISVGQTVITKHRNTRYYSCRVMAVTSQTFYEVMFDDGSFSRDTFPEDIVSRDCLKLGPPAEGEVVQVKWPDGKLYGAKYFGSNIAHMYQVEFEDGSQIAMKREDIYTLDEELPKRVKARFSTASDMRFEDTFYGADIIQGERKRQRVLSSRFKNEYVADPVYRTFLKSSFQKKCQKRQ
Description: as §1, §2

FBXL10 (KDM2B) = target: T3, FBXL10 (KDM2B) (Homo sapiens, UniProt Q8NHM5)
T3 sequence (Q8NHM5 1-1336): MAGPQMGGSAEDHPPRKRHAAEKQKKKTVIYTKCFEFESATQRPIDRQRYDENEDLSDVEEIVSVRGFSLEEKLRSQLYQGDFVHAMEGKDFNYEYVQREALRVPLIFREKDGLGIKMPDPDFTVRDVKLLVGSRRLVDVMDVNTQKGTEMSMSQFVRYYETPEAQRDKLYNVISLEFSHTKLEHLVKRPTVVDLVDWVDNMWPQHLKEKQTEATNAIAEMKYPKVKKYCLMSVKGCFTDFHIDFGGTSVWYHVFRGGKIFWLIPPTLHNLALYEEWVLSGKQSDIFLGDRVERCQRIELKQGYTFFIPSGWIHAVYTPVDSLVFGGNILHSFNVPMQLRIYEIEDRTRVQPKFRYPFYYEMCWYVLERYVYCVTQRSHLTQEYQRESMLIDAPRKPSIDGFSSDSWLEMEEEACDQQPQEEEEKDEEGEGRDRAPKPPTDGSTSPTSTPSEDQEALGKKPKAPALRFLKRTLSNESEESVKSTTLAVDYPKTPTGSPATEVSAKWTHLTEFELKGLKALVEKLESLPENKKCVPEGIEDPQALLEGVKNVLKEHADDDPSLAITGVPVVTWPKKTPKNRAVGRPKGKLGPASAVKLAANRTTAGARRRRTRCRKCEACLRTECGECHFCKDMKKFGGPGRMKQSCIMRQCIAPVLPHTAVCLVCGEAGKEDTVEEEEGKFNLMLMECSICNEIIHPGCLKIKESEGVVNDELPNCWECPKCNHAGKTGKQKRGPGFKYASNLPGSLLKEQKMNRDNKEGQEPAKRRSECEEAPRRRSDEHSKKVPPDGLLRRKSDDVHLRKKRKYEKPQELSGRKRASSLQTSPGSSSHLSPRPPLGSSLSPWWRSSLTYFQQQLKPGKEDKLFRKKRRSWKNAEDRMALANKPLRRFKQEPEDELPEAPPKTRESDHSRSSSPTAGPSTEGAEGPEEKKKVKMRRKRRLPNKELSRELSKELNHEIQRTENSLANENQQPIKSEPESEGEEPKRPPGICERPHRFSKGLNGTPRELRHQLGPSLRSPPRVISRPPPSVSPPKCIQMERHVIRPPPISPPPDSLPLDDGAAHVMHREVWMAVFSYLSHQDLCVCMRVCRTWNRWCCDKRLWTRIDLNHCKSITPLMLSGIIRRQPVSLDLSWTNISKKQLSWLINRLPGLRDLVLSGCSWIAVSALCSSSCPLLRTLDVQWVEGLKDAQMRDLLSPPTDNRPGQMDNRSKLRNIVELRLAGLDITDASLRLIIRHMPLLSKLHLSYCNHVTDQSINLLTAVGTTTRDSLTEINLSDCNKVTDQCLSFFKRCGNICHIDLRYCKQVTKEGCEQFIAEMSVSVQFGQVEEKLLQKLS
Description: as §1, §2

## O=C(O)c1ccnc(C(=O)O)c1 [2,4-Pyridine Dicarboxylic Acid, reference compound]
JMJD2A (KDM4A)
  % Inhibition: 100%
JMJD2C (KDM4C)
  % Inhibition: 100%
FBXL10 (KDM2B)
  % Inhibition: 99%
